Columns and labels:
[1] = tested on: pyocyanin production in PA14; assay: Pyocyanin production assay; conditions: PA14; 50µM of each inhibitor (method says 10 μM); vs vehicle
[2] = tested on: pqsA promoter (PA14 PpqsA-GFPASV); assay: pqsA-GFP reporter expression; assay type: cell-based, Pseudomonas aeruginosa; conditions: PA14 PpqsA-GFPASV; 50µM per b210 (method b76 says 10 µM)
Experimental: The expression levels of pqsA, which is representative of the pqsABCDE operon transcription, were monitored in the presence of the MvfR inhibitors using PA14 cells containing the PpqsA-GFPASV, a reporter construct of the pqsA promoter fused to a short half-life GFP gene in, such that quantitative quenching of fluorescence corresponds to pqsA promoter repression[22],[32],[48]. […] GFP fluorescence levels were measured at λex = 485 nm/λem = 535 nm after 10 seconds of shaking every 15 min up to 12 h. The IC50 of PpqsA-GFP expression levels was performed as above using the same 13 different concentrations (0.0122–50 μM) for each of the 13 compounds tested.

Row | SMILES | % Production Pyocyanin [1] | % Production pqsA-GFP [2]
1 | Cc1cc(F)ccc1NCC(=O)Nc1ccccc1Br [D2] | 101% | 96%
2 | CCc1ccccc1NCC(=O)Nc1ccc(C#N)cc1 [D3] | 97% | 92%
3 | Cc1cc(F)ccc1NCC(=O)Nc1ccc(N2CCOCC2)cc1 [D5] | 102% | 100%
4 | N#Cc1ccc(NC(=O)CNc2cccc(F)c2)cc1 [D6] | 91% | 68%
5 | Cc1cc(F)ccc1NCC(=O)Nc1ccc(Br)cc1C [D7] | 89% | 70%
6 | Cc1cc(F)ccc1NCC(=O)Nc1ccc(N2CCCC2=O)cc1 [D9] | 107% | 105%
7 | Cc1cc(F)ccc1NCC(=O)Nc1cc(F)ccc1F [D10] | 90% | 89%
8 | Cc1ccc(NC(=O)CNc2ccc(F)cc2C)c(Br)c1 [D12] | 108% | 92%
9 | Cc1cc(F)ccc1NCC(=O)Nc1cccc(C#N)c1 [D13] | 100% | 90%
10 | Cc1cc(F)ccc1NCC(=O)Nc1cccc([N+](=O)[O-])c1 [D14] | 85% | 77%
11 | COc1ccc(NC(=O)CNc2ccc(F)cc2C)cc1 [D15] | 102% | 87%
12 | N#Cc1ccc(NC(=O)CNc2ccc(Cl)cc2)cc1 [D16] | 43% | 18%
13 | Cc1ccc(F)cc1NCC(=O)Nc1ccc(C#N)cc1 [D18] | 69% | 28%
14 | Cc1cc(F)ccc1NCC(=O)Nc1ccc(C(=O)N(C)C)cc1 [D19] | 109% | 100%
15 | Cc1ccc(NC(=O)CNc2ccc(F)cc2C)c(C)c1 [D21] | 113% | 87%
16 | Cc1cc(F)ccc1NCC(=O)Nc1cccc(Cl)c1 [D22] | 96% | 71%
17 | N#Cc1ccc(NCC(=O)Nc2ccc(F)cc2)cc1 [D24] | 59% | 26%

Row | SMILES | % Production Pyocyanin [1] | % Production pqsA-GFP [2]
18 | N#Cc1ccc(NC(=O)CNc2ccccc2F)cc1 [D25] | 97% | 84%
19 | Cc1ccc(NCC(=O)Nc2ccc(C#N)cc2)cc1F [D28] | 60% | 42%
20 | CC(=O)c1ccccc1NC(=O)CNc1ccc(F)cc1C [D30] | 91% | 94%
21 | Cc1cc(NC(=O)CNc2ccc(F)cc2C)ccc1Br [D31] | 69% | 47%
22 | COc1cccc(NC(=O)CNc2ccc(F)cc2C)c1 [D32] | 92% | 94%
23 | CC(C)c1ccc(NCC(=O)Nc2ccc(C#N)cc2)cc1 [D33] | 59% | 53%
24 | Nc1cc([N+](=O)[O-])ccc1NC(=O)CC(=O)Nc1ccc(Oc2ccccc2)cc1 [D60] | 6% | 
25 | N#Cc1ccc(NC(=O)CC(=O)Nc2cccc(F)c2)cc1 [D72] | 30% | 
26 | N#Cc1ccc(NC(=O)CC(=O)Nc2cccc(C#N)c2)cc1 [D75] | 49% | 
27 | N#Cc1ccc(NC(=O)CC(=O)c2ccc(F)cc2)cc1 [D76] | 77% | 
28 | N#Cc1ccc(NC(=O)CC(=O)Nc2ccc(C#N)cn2)cc1 [D78] | 14% | 
29 | N#Cc1ccc(/C=C/C(=O)Nc2ccc(C#N)cc2)cc1 [D83] | 114% | 
30 | N#Cc1ccc(NC(=O)CC(=O)Cc2ccc(F)cc2)cc1 [D84] | 102% | 
31 | N#Cc1ccc(NC(=O)C=CC(=O)Nc2ccc(F)cc2)cc1 [D86] | 88% | 
32 | N#Cc1ccc(NC(=O)CC(O)Cc2ccc(F)cc2)cc1 (stereo not drawn) [D89] | 95% | 
33 | N#Cc1ccc(NC(=O)CC(=O)Nc2ccc(C#N)nc2)cn1 [D91] | 43% | 39%
